Results as given in ChEMBL document CHEMBL5257031, “Drug-like Antagonists of P2Y Receptors-From Lead Identification to Drug Development” (J Med Chem, 2016).
Each block holds one compound with its values, some of them ahead of it.

Tests used:
[1] = Half life in C57BL/6 mouse 2 mg/kg, iv; type: ADME, organism-based; settings: in vivo
[2] = Half life in C57BL/6 mouse 2 mg/kg, iv; settings: in vivo
[3] = Oral bioavailability in C57BL/6 mouse at 50 mg/kg; settings: in vivo
P2Y purinoceptor 12 [4] = molecular target: T1, P2Y purinoceptor 12 (Homo sapiens, UniProt Q9H244); assay: Antagonist activity at human P2Y12
P2Y purinoceptor 4 [5] = molecular target: T2, P2Y purinoceptor 4 (Homo sapiens, UniProt P51582)
P2Y purinoceptor 4 [6] = molecular target: P2Y purinoceptor 4 (Rattus norvegicus, UniProt O35811); assay: Agonist activity at rat P2Y4
[7] = Antagonist activity at P2Y14 using UDP-Glc as substrate
P2Y purinoceptor 6 = P2Y purinoceptor 6 (Homo sapiens, UniProt Q15077); assay: Antagonist activity at human P2Y6
P2Y purinoceptor 1 [8] = molecular target: T3, P2Y purinoceptor 1 (Homo sapiens, UniProt P47900); assay: Agonist activity at human P2Y1
P2Y purinoceptor 14 [9] = molecular target: T4, P2Y purinoceptor 14 (Homo sapiens, UniProt Q15391); assay: Antagonist activity at human P2Y14 expressed in CHO cells assessed as inhibition constant; type: cell-based
T4 sequence (Q15391 whole entry): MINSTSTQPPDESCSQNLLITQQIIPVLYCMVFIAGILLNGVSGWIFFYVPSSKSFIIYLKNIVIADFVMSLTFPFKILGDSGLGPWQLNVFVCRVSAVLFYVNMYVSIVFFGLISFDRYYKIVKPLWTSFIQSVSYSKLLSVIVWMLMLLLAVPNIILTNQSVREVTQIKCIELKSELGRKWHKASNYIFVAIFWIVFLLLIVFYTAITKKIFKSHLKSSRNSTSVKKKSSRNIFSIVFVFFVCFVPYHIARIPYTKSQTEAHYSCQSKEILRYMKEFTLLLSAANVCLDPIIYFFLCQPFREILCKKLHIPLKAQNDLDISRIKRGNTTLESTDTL

P2Y purinoceptor 14 [10] = molecular target: T5, P2Y purinoceptor 14 (Rattus norvegicus, UniProt O35881); assay: Antagonist activity at rat P2Y14
T5 sequence (O35881 whole entry): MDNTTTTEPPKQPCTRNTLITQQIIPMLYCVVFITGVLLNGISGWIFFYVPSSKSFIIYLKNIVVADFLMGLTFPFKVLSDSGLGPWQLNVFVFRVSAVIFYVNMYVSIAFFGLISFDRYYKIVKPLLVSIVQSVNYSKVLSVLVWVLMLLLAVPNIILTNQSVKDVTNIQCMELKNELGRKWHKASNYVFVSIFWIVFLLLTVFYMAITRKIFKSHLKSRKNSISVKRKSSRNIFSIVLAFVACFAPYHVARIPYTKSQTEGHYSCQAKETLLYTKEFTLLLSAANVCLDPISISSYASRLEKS

P2Y purinoceptor 2 = P2Y purinoceptor 2 (Mus musculus, UniProt P35383); assay: Antagonist activity at mouse P2Y2
[11] = Clearance in rat at 30 mg/kg, po; type: ADME, organism-based; settings: in vivo
[12] = Volume of distribution at steady state in rat at 30 mg/kg, PO; type: ADME, organism-based; settings: in vivo
[13] = Half life in rat 1 mg/kg, iv; type: ADME, organism-based; settings: in vivo
[14] = Half life in rat 30 mg/kg, po; type: ADME, organism-based; settings: in vivo
P2Y purinoceptor 4 [15] = molecular target: T2, P2Y purinoceptor 4; assay: Agonist activity at human P2Y4 transfected in human 1321N1 cells; type: cell-based
[16] = Antagonist activity at human P2Y12 by aggregation assay
P2Y purinoceptor 1 [17] = molecular target: T3, P2Y purinoceptor 1; assay: Inhibition of human P2Y1
[18] = Clearance in rat; type: ADME; settings: in vivo
[19] = Volume of distribution at steady state in rat; type: ADME; settings: in vivo
P2Y purinoceptor 12 [20] = molecular target: T1, P2Y purinoceptor 12; assay: Displacement of [3H]-2-MeS-ADP from human P2Y12 assessed as inhibition constant incubated for 30 mins
[21] = Antagonist activity at ATP gamma S induced mucin in Normal human bronchial epithelial cell; type: cell-based
P2Y purinoceptor 13 [22] = molecular target: T6, P2Y purinoceptor 13 (Homo sapiens, UniProt Q9BPV8); assay: Antagonist activity at P2Y13 (unknown origin)
T6 sequence (Q9BPV8 whole entry): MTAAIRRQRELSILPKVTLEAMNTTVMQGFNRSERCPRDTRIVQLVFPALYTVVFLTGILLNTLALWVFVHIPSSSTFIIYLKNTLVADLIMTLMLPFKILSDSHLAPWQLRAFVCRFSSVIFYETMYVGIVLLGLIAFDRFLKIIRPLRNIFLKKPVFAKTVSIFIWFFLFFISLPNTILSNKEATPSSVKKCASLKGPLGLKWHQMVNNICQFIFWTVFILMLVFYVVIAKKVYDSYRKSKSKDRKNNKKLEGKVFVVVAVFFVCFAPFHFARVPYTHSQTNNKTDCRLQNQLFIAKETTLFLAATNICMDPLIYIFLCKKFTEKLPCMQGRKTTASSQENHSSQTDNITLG

P2Y purinoceptor 13 [23] = molecular target: T6, P2Y purinoceptor 13; assay: Antagonist activity at human P2Y13
P2Y purinoceptor 1 [24] = molecular target: T3, P2Y purinoceptor 1; assay: Inhibition of human P2Y1 assessed as inhibition constant
[25] = molecular target: P2Y purinoceptor 4 (Rattus norvegicus) (UniProt O35811); assay: Agonist activity at rat P2Y4 transfected in human 1321N1 cells at 100 uM relative to control; type: cell-based
P2Y purinoceptor 4 [26] = molecular target: T2, P2Y purinoceptor 4; assay: Agonist activity at human P2Y4 transfected in human 1321N1 cells at 100 uM relative to control; type: cell-based
[27] = Binding affinity to chimpanzee P2Y14 assessed as inhibition constant; design: species or system Pan troglodytes
[28] = Cmax in rat measured up to 24 hrs; type: ADME; design: time < 24 hrs; settings: in vivo
[29] = Cmax in mouse measured up to 24 hrs; type: ADME; design: time < 24 hrs; settings: in vivo
in vivo = settings: mouse, po
[30] = Oral bioavailability in mouse; settings: in vivo
[31] = Antagonist activity at human pA2 by FLIPR assay

T2 sequence (P51582 whole entry): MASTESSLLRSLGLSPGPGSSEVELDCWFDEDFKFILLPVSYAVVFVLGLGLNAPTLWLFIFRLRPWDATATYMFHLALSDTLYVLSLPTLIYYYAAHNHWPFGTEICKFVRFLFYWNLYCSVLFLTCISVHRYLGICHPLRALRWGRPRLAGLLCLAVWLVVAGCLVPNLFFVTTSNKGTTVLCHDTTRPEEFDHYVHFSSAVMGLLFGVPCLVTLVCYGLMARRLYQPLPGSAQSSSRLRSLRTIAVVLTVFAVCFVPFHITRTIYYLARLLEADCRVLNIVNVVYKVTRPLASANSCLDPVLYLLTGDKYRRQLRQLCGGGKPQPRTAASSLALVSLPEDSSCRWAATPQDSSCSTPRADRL
T1 sequence (Q9H244 whole entry): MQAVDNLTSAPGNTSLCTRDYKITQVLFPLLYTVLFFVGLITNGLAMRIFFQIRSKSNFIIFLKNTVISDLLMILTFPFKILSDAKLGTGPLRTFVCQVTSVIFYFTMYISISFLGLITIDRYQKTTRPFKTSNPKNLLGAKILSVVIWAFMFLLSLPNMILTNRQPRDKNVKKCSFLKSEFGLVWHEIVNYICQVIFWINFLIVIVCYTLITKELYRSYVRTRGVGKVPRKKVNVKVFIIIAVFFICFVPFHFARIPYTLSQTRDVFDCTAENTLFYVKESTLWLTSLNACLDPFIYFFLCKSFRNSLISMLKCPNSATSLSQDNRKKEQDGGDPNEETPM
T3 sequence (P47900 whole entry): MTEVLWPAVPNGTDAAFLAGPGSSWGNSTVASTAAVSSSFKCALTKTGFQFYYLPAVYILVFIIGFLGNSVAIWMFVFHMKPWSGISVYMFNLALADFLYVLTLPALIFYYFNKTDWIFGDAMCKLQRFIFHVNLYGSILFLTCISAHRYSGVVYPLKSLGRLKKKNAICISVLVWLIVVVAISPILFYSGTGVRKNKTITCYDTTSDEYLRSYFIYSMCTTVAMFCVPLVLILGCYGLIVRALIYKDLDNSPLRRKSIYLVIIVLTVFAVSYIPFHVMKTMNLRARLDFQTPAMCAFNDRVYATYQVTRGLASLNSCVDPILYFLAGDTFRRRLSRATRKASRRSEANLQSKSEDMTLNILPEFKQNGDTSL
Sequence of P2Y purinoceptor 6 (Q15077 whole entry): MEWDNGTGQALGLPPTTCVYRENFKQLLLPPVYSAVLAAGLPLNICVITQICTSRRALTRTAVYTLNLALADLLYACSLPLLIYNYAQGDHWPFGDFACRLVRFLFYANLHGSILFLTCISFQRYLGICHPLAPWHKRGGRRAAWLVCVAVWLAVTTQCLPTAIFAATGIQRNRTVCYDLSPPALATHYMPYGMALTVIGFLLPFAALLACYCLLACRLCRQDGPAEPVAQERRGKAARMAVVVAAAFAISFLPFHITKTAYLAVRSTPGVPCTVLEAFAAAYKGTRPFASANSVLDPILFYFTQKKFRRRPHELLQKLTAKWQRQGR
Sequence of P2Y purinoceptor 2 (P35383 whole entry): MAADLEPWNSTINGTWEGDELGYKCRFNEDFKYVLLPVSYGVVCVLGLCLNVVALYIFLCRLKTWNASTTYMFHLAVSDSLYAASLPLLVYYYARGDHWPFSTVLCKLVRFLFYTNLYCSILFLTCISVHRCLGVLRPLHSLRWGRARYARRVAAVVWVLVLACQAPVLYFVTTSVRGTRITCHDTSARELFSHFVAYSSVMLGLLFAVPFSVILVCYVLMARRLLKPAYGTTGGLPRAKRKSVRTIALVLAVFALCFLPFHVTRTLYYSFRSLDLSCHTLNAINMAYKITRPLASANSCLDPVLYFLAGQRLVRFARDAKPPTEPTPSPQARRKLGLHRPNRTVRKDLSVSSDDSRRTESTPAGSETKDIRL
Sequence of P2Y purinoceptor 4 (Rattus norvegicus) (O35811 whole entry): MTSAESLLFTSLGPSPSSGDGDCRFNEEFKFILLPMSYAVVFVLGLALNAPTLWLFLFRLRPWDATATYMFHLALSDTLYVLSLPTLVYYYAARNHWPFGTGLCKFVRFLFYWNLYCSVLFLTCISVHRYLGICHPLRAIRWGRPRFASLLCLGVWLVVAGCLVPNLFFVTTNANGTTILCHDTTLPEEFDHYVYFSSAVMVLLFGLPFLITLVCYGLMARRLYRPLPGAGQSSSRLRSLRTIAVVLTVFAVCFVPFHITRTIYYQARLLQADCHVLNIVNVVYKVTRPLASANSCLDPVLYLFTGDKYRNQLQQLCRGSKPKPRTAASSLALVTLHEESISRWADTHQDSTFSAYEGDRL
Sequence of P2Y purinoceptor 4 (Rattus norvegicus, UniProt O35811) (O35811 whole entry): as above

SMILES: CCOC(=O)N1CCN(C(=O)[C@H](CCC(=O)O)NC(=O)c2cc(OC(C)(C)C(=O)OCC)c3ccc(C)cc3n2)CC1
IC50 (P2Y purinoceptor 12 [4]): 130 nM

SMILES: Nc1ncnc2c1ncn2[C@@H]1O[C@H](COP(=O)(O)OP(=O)(O)OP(=O)(O)O)[C@@H](O)[C@H]1O [ADENOSINE TRIPHOSPHATE]
EC50 (P2Y purinoceptor 4 [5]): 6200 nM | EC50 (P2Y purinoceptor 4 [6]): 1170 nM

SMILES: S=C=Nc1cccc(NC(=S)NCCCCNC(=S)Nc2cccc(N=C=S)c2)c1
IC50 (P2Y purinoceptor 6): 37 nM

SMILES: CNc1nc(Cl)nc2c1ncn2CCC(COP(=O)(O)O)COP(=O)(O)O
IC50 (P2Y purinoceptor 1 [8]): 840 nM

SMILES: O=c1ccn([C@@H]2O[C@H](COP(=O)(O)OP(=O)(O)O)[C@@H](O)[C@H]2O)c(=O)[nH]1 [URIDINE_DIPHOSPHATE]
EC50 (P2Y purinoceptor 14 [10]): 350 nM

SMILES: COc1ccc(-c2cc(=O)c3c(OC)c(OC)c(OC)c(OC)c3o2)cc1 [TANGERETIN]
IC50 (P2Y purinoceptor 2): 12000 nM

SMILES: O=c1ccn([C@@H]2O[C@H](COP(=O)(O)OP(=O)(O)OP(=O)(O)O)[C@@H](O)[C@H]2O)c(=O)[nH]1 [URIDINE TRIPHOSPHATE]
EC50 (P2Y purinoceptor 4 [15]): 550 nM

SMILES: CCCCNc1nc(SCCC)nc2c1nnn2[C@@H]1C[C@H](/C=C/C(=O)N[C@@H](CC(=O)O)C(=O)O)[C@@H](O)[C@H]1O
pIC50 [16]: 9.3

SMILES: Nc1ncnc2c1ncn2[C@H]1C[C@H](OP(=O)(O)O)[C@@H](COP(=O)(O)O)O1
EC50 (P2Y purinoceptor 1 [8]): 6300 nM | IC50 (P2Y purinoceptor 1 [8]): 5800 nM

SMILES: CNc1ncnc2c1ncn2[C@H]1C[C@H](OP(=O)(O)O)[C@@H](COP(=O)(O)O)O1
IC50 (P2Y purinoceptor 1 [17]): 330 nM

SMILES: CCCSc1nc(N[C@@H]2C[C@H]2c2ccccc2)c2nnn([C@@H]3C[C@H](c4nnn[nH]4)[C@@H](O)[C@H]3O)c2n1
Ki (P2Y purinoceptor 12 [20]): 2 nM

SMILES: Cc1ccc2c(c1)C=Cc1cc(C)ccc1C2c1cn(Cc2ccc(C(=O)Nc3nnn[nH]3)o2)c(=O)[nH]c1=S
IC50 [21]: 1000 nM

SMILES: Nc1c(S(=O)(=O)O)cc(Nc2ccc(Nc3nc(Cl)nc(Nc4cccc(S(=O)(=O)O)c4)n3)c(S(=O)(=O)O)c2)c2c1C(=O)c1ccccc1C2=O [RB 2]
IC50 (P2Y purinoceptor 13 [22]): 1900 nM

SMILES: Cc1nc(/N=N/c2ccc(S(=O)(=O)O)cc2S(=O)(=O)O)c(COP(=O)(O)O)c(C=O)c1O
IC50 (P2Y purinoceptor 13 [22]): 11600 nM

SMILES: CCCCNc1nc(SCCC)nc2c1ncn2[C@@H]1O[C@H](/C=C/C(=O)N[C@@H](CC(=O)O)C(=O)O)[C@@H](O)[C@H]1O
pIC50 [16]: 7

SMILES: S=C=Nc1ccc(CCc2ccc(N=C=S)cc2)cc1
IC50 (P2Y purinoceptor 6): 100 nM

SMILES: Nc1ncnc2c1ncn2[C@@H]1O[C@H](COP(=O)(O)OP(=O)(O)O)[C@@H](O)[C@H]1O
Activity [25]: 34% | Activity (P2Y purinoceptor 4 [26]): 15%

SMILES: O=C(O)c1cc(-c2ccc(C3CCNCC3)cc2)c2ccc(-c3ccc(C(F)(F)F)cc3)cc2c1 [PPTN]
Ki [27]: 1.9 nM | Cmax [28]: 680 nM | Cmax [29]: 2280 nM | bioavailability (in vivo): 5% | bioavailability [30]: 5%

SMILES: CCCCNc1nc(SCCC)nc2c1nnn2[C@@H]1O[C@H](/C=C/C(=O)N[C@@H](CC(=O)O)C(=O)O)[C@@H](O)[C@H]1O
pIC50 [16]: 9.5

SMILES: CC(C)(C)CN1CCC2(CC1)CN(c1ccccc1NC(=O)Nc1nc3ccc(Cl)nc3s1)c1c(O)cc(F)c(-c3ccc(F)cc3)c12
clearance [18]: 4 mL/min/kg | Vd ([19]; read-out: Vdss): 2.1 L/kg | bioavailability [30]: 30% | IC50 [31]: 180 nM

Now from value to compound:

half-life [1]: 2.7 h | half-life [2]: 2.7 h | bioavailability [3]: 12%
SMILES: Cc1cc(F)cc(C)c1COc1ccc2c(-c3ccsc3)cc(C(=O)O)cc2c1

IC50 [7]: 3500 nM
SMILES: O=C(O)c1cc(-c2ccccc2)c2ccc(OCc3ccccc3)cc2c1

Ki (P2Y purinoceptor 14 [9]): 0.08 nM
SMILES: CC(=O)c1cc(C(=O)NCCCCCCn2cc(CCCCN3CCC(c4ccc(-c5cc(C(=O)O)cc6cc(-c7ccc(C(F)(F)F)cc7)ccc56)cc4)CC3)nn2)ccc1-c1c2ccc(=N)c(S(=O)(=O)O)c-2oc2c(S(=O)(=O)O)c(N)ccc12

CL/F [11]: 13 mL/min/kg | Vdss [12]: 0.8 L/kg | half-life [13]: 15.4 h | half-life [14]: 1.4 h
SMILES: CC(C)(C)c1ccccc1Oc1ncccc1NC(=O)Nc1ccc(OC(F)(F)F)cc1

IC50 (P2Y purinoceptor 12 [4]): 8.3 nM
SMILES: CCOC(=O)N1CCN(C(=O)[C@H](CCC(=O)O)NC(=O)c2cc(OC(C)(C)C(=O)O)c3ccc(C)cc3n2)CC1

clearance [18]: 81 mL/min/kg | Vdss [19]: 15.7 L/kg
SMILES: Cc1cc(Oc2ccccc2NC(=O)Nc2ccc(OC(F)(F)F)cc2)n(-c2ccccc2Cl)n1

IC50 (P2Y purinoceptor 13 [23]): 661 nM
SMILES: Cc1nc(/N=N/c2ccc(Cl)c([N+](=O)[O-])c2)c(COP(=O)(O)O)c(C=O)c1O

Ki (P2Y purinoceptor 1 [24]): > 10000 nM
SMILES: Cc1cc(Oc2ccccc2NC(=O)Nc2ccc(C3CCS(=O)(=O)CC3)cc2)n(-c2ccccc2Cl)n1

Ki (P2Y purinoceptor 1 [24]): 70 nM
SMILES: CCc1ccccc1-n1nc(C)cc1Oc1ccccc1NC(=O)Nc1ccc(OC(F)(F)F)cc1

IC50 (P2Y purinoceptor 13 [22]): 2300 nM
SMILES: Cc1ccc(C(=O)Nc2ccc(S(=O)(=O)O)c3cc(S(=O)(=O)O)cc(S(=O)(=O)O)c23)cc1NC(=O)c1cccc(NC(=O)Nc2cccc(C(=O)Nc3cc(C(=O)Nc4ccc(S(=O)(=O)O)c5cc(S(=O)(=O)O)cc(S(=O)(=O)O)c45)ccc3C)c2)c1 [SURAMIN HEXASODIUM]

IC50 (P2Y purinoceptor 13 [23]): 1070 nM
SMILES: Cc1nc(/N=N/c2cc([N+](=O)[O-])ccc2Cl)c(COP(=O)(O)O)c(C=O)c1O
